Measured values from patent US20070213291A1, “Therapeutically useful synthetic oligonucleotides” (priority 1999, published 2007).

Columns and labels:
[1] = system: Jurkat human leukemia T cells; assay: Inhibition of Jurkat human leukemia T cell proliferation (MTT reduction); format: cell-based; conditions: 100 μg/ml sequence, 48 h, 2.5×10^5 cells/ml
Outline: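 Jurkat cells at 2.5×10^5 cells/ml exposed to 100 μg/ml of 2–45-base A/C/G/T sequences (0 μg/ml control) for 48 h, 37° C, 5% CO2. Viability by MTT reduction read at 570 nm.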

[2] = system: EL-4 murine T lymphoma cells; assay: Inhibition of EL-4 cell proliferation (MTT); format: cell-based; conditions: 100 μg/ml, 48 h
Method: (§1) Cells were seeded in 6 (1 ml/well), 24 (0.5 ml/well) or 96 (0.1 ml/well) well flat-bottom microplates and were maintained at 37° C. in a 5% CO2 atmosphere. Unless stated otherwise, 2.5×10^5 cells/ml were incubated with 0 μg/ml (control) and 100 μg/ml (treated) of 2 to 45 base sequences containing A, C, G and T for 48 h.
(§2) Cell proliferation was measured using dimethylthiazol-diphenyl-tetrazolium (MTT) reduction (Mosman et al. J. Immunol. Methods 65:55, 1983). MTT was measured at a wavelength of 570 nm using a multiplate spectrophotometer reader (ELX800, Bio-TEK Instruments Inc., Winooski, Vt.).
EL-4 murine lymphoma T cells are a suspension tumor model. EL-4 murine lymphoma T cells were incubated with 6, 18, 27 and 33 base GT sequences and with a 15 base ACG sequence (Table 18).

[3] = system: D-17 canine osteosarcoma cells; assay: Inhibition of D-17 cell proliferation (MTT); format: cell-based; conditions: 100 μg/ml, 48 h, 5×10^5 cells/ml
Method: as §1, §2
(§3) D-17 canine osteosarcoma cells and CF-51 canine mammary gland cancer cells are solid tumor models. D-17 canine osteosarcoma cells (5×10^5 cells/ml) (Table 20) and CF-51 canine mammary gland cancer cells (5×10^5 cells/ml) (Table 21) were incubated with 6, 9, 17, 27 and 33 base GT-sequences and with a 15 base ACG sequence.

[4] = system: CF-51 canine mammary gland cancer cells; assay: Inhibition of CF-51 cell proliferation (MTT); format: cell-based; conditions: 100 μg/ml, 48 h, 5×10^5 cells/ml
Method: as §1, §2, §3

[5] = system: Jurkat human leukemia T cells; assay: Cell cycle stage in Jurkat cells (propidium iodide flow cytometry); format: cell-based; conditions: Jurkat
Outline: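 Exponentially growing Jurkat cells were exposed for 24 h to 2–45-base A/C/G/T oligonucleotides, or at 1×10^6 cells/ml to 6-base GT and AC strands, alone (heated 10 min, 65 °C) or hybridized 1:1. Detergent-, trypsin-, RNase- and spermine-treated nuclei were propidium iodide-stained and scored for G0/G1, early/mid/late S and G2/M by doublet-discriminating flow cytometry.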

[6] = system: Jurkat human leukemia T cells; assay: Apoptosis by phosphatidylserine/annexin V-FITC flow cytometry; format: cell-based; conditions: M. phlei murA derived sequences
Method: The redistribution of phosphatidylserine in the plasma membrane during apoptosis was measured by flow cytometry using FITC-conjugated annexin V (BD Pharmingen, San Diego, Calif.). NuMA release into the supernatant was determined using a commercial ELISA kit (Oncogen/Calbiochem, Cambridge, Mass.).
Jurkat human leukemia T cells were incubated with 50 μM of 3, 4, 5, 6 and 7 GT base sequences, a 5 base ACGT sequence, 6 base AG, GG, AGT and CGT sequences and a 7 base GG sequence. […]
Jurkat human leukemia T cells were incubated with GT-rich or AC-rich sequences derived from the murA gene of Mycobacterium phlei (GenBank: Accession Number X99776). Inhibition of proliferation was measured by the reduction of MTT as in Example 3, cell cycle arrest was detected by flow cytometry using propidium iodide as in Example 21 and apoptosis was evaluated by flow cytometry using annexin-V-FITC as in Example 23.

[7] = system: caspase 3; assay: Active caspase 3 by FITC-conjugated antibody flow cytometry; format: cell-based, human; conditions: Jurkat, 72 h, 100 μg/ml, cytometric (FIG. 2A)
Method: (§4) To determine caspase activation, control and treated cells are washed, fixed, permeabilized and incubated with an FITC-conjugated antibody that recognizes the active form of the caspase (Pharmingen, San Diego, Calif.) using the conditions recommended by the manufacturer. Fluorescence associated with active caspase 3 is analyzed by flow cytometry on a FACSCALIBUR using the program CellQUEST (Becton Dickinson). Alternatively, caspase activation is determined colorimetrically using an assay based on the cleavage of a caspase-specific peptide conjugated to the color reporter molecule p-nitroanilide, which can be quantitated spectrophotometrically at a wavelength of 405 nm.
(§5) Jurkat T cell leukemia cells were incubated for 72 h with 33 base GT SEQ ID NO:66; 11 base GT SEQ ID NO:81 (bases 1-11 of GT SEQ ID NO:66), 11 base GT SEQ ID NO:82 (bases 12-22 of GT SEQ ID NO:66), 11 base GT SEQ ID NO:83 (bases 23-33 of GT SEQ ID NO:66) and 15 base ACG SEQ ID NO:67. Active caspase 3 (17-22 kDa) was determined using FITC conjugated antibody (Clone: C92-605) as in Example 28.

[8] = system: caspase 3; assay: Caspase 3 activation, colorimetric (p-nitroanilide peptide cleavage); format: cell-based, human; conditions: Jurkat, 72 h, 100 μg/ml
Method: as §4, §5
Caspase 3 activation also was determined colorimetrically as in Example 28.
Jurkat T cell leukemia cells were incubated for 72 h with 6 base GT SEQ ID NO:25. Caspase 3 activation was determined colorimetrically as in Example 28.

[9] = Melting temperature (Tm) of sequences; format: physicochemical

For “AACCACAAGCCCAAC (DNA, backbone not given here) [SEQ ID NO:67]”, the “% INHIBITION of Jurkat human leukemia T cell proliferation” value [1] was 4%, the “% INHIBITION of EL-4 murine T lymphoma cell proliferation” value [2] was −6% and the “% INHIBITION of D-17 canine osteosarcoma cell proliferation” value [3] was 20%. The “% INHIBITION of CF-51 canine mammary gland cancer cell proliferation” value [4] was 20%, the “% of cells in phase: G0/G1” value ([5]; 24 h, 100 μg/ml) was 39.6% and the “% of cells in phase: G2/M” value ([5]; 24 h, 100 μg/ml) was 24.6%. The “% of cells in phase: SE” value ([5]; 24 h, 100 μg/ml) was 13.5%, the “% of cells in phase: SL” value ([5]; 24 h, 100 μg/ml) was 9.5% and the “% of cells in phase: SM” value ([5]; 24 h, 100 μg/ml) was 12.8%. For the same sequence, the “Arrest (cell cycle)” value ([5]; 24 h, 100 μg/ml) was “None”, the cell cycle arrest ([5]; M. phlei murA derived sequences) was “No” and the “% at cells in apoptosis” value [6] was 0%. For the same sequence, the “processing of inactive pro-caspase 3 to active caspase 3” value [7] was “did not induce processing of inactive pro-caspase 3 to active caspase 3” and the “caspase 3 activity greater than in control cells” value [8] was “approximately the same as in control cells”.

For GGGTGGGGGTGG [SEQ ID NO:68], the “% INHIBITION of Jurkat human leukemia T cell proliferation” value [1] was 18% and the “melting temperature (Tm)” value [9] was 56.8 °C.

With GGGTGGGGGTGGGGGTGG [SEQ ID NO:69] the “% INHIBITION of Jurkat human leukemia T cell proliferation” value [1] was 5% and the “melting temperature (Tm)” value [9] was 76.3 °C.

For “GGGTGGGGGTGGGGGTGGGGGTGG (unmodified DNA) [SEQ ID NO:70]”, the “% INHIBITION of Jurkat human leukemia T cell proliferation” value [1] was 13% and the “melting temperature (Tm)” value [9] was 86.3 °C.
